Source: patent US10072023B2, “Diarylethene compounds and uses thereof” (SWITCH MATERIALS, INC., priority 2011, dated 2018)

Test: Absorbance at photostationary state (PSS) under simulated sunlight or 365 nm light
Type: physicochemical
Parameters: λ max: unit not given here
Settings: for Absorbance at PSS, 365 nm: 365 nm light source; for Absorbance at PSS, 365 nm / Absorbance at PSS, full / Absorbance at PSS, +UV / λ max: 2.0×10^−5 M in triglyme; for sensitivity index: ratio of PSS under 365 nm light to PSS under full spectrum light (without UV blocking film); for Absorbance at PSS, full: simulated sunlight (QSUN solar simulator), no UV blocking film; for Absorbance at PSS, +UV: simulated sunlight with UV blocking film (cutoff 370 nm); for λ max: wavelength of maximum absorbance in the visible range, ring-closed isoform
Experimental: Absorbance at a PSS for selected compounds was measured at 2.0×10^−5 M in triglyme in the absence (full) or presence (+UV) of a UV blocking film with a UV cutoff wavelength of 370 nm (10% transmission at 370 nm), using simulated sunlight (QSUN solar simulator) as a light source, or a 365 nm light source; these PSS are reported in Tables 1.5. […] “Switch” refers to the ability (yes or no) of the compound to be reversibly converted under photochromic and electrochromic conditions between a ring-open isomer and ring-closed isomer.
A sensitivity index (SI) is a ratio of the PSS under 365 nm light to the PSS under full spectrum light (without UV blocking film). SI is an indicator of the sensitivity of the compound to the composition of the incident light (a change in the ratio of UV and visible components)—photochemical ring-opening is induced by a portion of the visible light spectrum.
Photostationary State (PSS) UV/Vis spectra are obtained using an OceanOptics™ Spectrophotometer until absorption in the visible region of the spectrum stabilizes. A 2×10^−5M solution of compound in solvent is prepared, and photofaded using visible light until absorption in the visible region of the spectrum stabilizes. The sample is then irradiated with simulated sunlight (QSUN SS-150 Solar Simulator with xenon arc lamp) until the absorption spectrum stabilizes. To obtain PSS in the presence of a UV blocking film, a second sample is prepared and irradiated as described, with a UV blocking film inserted in the light path when irradiating.

Structure (SMILES) | Absorbance at PSS, 365 nm | sensitivity index | Absorbance at PSS, full | Absorbance at PSS, +UV | λ max
COc1ccc(-c2sc(-c3ccc(OCCOc4ccc(N(c5ccc(Cl)cc5)c5ccc(Cl)cc5)cc4)cc3)cc2C2=C(c3cc(-c4ccc(OCCOc5ccc(N(c6ccc(Cl)cc6)c6ccc(Cl)cc6)cc5)cc4)sc3-c3ccc(OC)cc3)C(F)(F)C(F)(F)C2(F)F)cc1 [S090, 4,4′-(((((4,4′-(perfluorocyclopent-1-ene-1,2-diyl)bis(5-(4-methoxyphenyl)thiophene-4,2-diyl))bis(4,1-phenylene))bis(oxy))bis(ethane-2,1-diyl))bis(oxy))bis(N,N-bis(4-chlorophenyl)aniline)] | 0.183 | 1.71 | 0.107 | 0.058 | 624
CCOc1ccc(-c2cc(C3=C(c4cc(-c5ccc(OCC)cc5)sc4-c4ccc(OCC)cc4)C(F)(F)C(F)(F)C3(F)F)c(-c3ccc(OCC)cc3)s2)cc1 [S091, 3,3′-(perfluorocyclopent-1-ene-1,2-diyl)bis(2,5-bis(4-ethoxyphenyl)thiophene)] | 0.287 | 1.75 | 0.164 | 0.095 | 629
CC(C)Oc1ccc(-c2cc(C3=C(c4cc(-c5ccc(OC(C)C)cc5)sc4-c4ccc(OC(C)C)cc4)C(F)(F)C(F)(F)C3(F)F)c(-c3ccc(OC(C)C)cc3)s2)cc1 [S092, 3,3′-(perfluorocyclopent-1-ene-1,2-diyl)bis(2,5-bis(4-isopropoxyphenyl)thiophene)] | 0.307 | 1.90 | 0.162 | 0.093 | 627
CC(C)(C)COc1ccc(-c2cc(C3=C(c4cc(-c5ccc(OCC(C)(C)C)cc5)sc4-c4ccc(OCC(C)(C)C)cc4)C(F)(F)C(F)(F)C3(F)F)c(-c3ccc(OCC(C)(C)C)cc3)s2)cc1 [S095, 3,3′-(perfluorocyclopent-1-ene-1,2-diyl)bis(2,5-bis(4-(neopentyloxy)phenyl)thiophene)] | 0.279 | 1.74 | 0.16 | 0.086 | 625
COc1cc(OC)cc(-c2cc(C3=C(c4cc(-c5cc(OC)cc(OC)c5)sc4-c4cc(OC)cc(OC)c4)C(F)(F)C(F)(F)C3(F)F)c(-c3cc(OC)cc(OC)c3)s2)c1 [S097, 3,3′-(perfluorocyclopent-1-ene-1,2-diyl)bis(2,5-bis(3,5-dimethoxyphenyl)thiophene)] | 0.206 | 2.82 | 0.073 | 0.029 | 611
COCCOc1ccc(-c2sc(-c3ccc(C(C)(C)C)s3)cc2C2=C(c3cc(-c4ccc(C(C)(C)C)s4)sc3-c3ccc(OCCOC)cc3)C(F)(F)C(F)(F)C2(F)F)cc1 [S104, 4,4″-(perfluorocyclopent-1-ene-1,2-diyl)bis(5′-(tert-butyl)-5-(4-(2-methoxyethoxy)phenyl)-2,2′-bithiophene)] | 0.383 | 1.28 | 0.299 | 0.203 | 645
CC(C)(C)c1ccc(-c2cc(C3=C(c4cc(-c5ccc(C(C)(C)C)s5)sc4-c4ccc(O)cc4)C(F)(F)C(F)(F)C3(F)F)c(-c3ccc(O)cc3)s2)s1 [S105, 4,4′-(4,4″-(perfluorocyclopent-1-ene-1,2-diyl)bis(5′-(tert-butyl)-[2,2′-bithiophene]-5,4-diyl))diphenol] | 0.272 | 1.38 | 0.197 | 0.134 | 647
COc1ccc(-c2sc(-c3cc4ccccc4s3)cc2C2=C(c3cc(-c4cc5ccccc5s4)sc3-c3ccc(OC)cc3)C(F)(F)C(F)(F)C2(F)F)cc1 [S110, 2,2′-(4,4′-(perfluorocyclopent-1-ene-1,2-diyl)bis(5-(4-methoxyphenyl)thiophene-4,2-diyl))bis(benzo[b]thiophene)] | 0.414 | 1.20 | 0.346 | 0.221 | 653
CC(C)(C)c1ccc(-c2cc(C3=C(c4cc(-c5ccc(C(C)(C)C)s5)sc4-c4ccc(OCCCO)cc4)C(F)(F)C(F)(F)C3(F)F)c(-c3ccc(OCCCO)cc3)s2)s1 [S111, 3,3′-(4,4′-(4,4′-(perfluorocyclopent-1-ene-1,2-diyl)bis(5′-tert-butyl-2,2′-bithiophene-5,4-diyl))bis(4,1-phenylene)bis(oxy))dipropan-1-ol] | 0.322 | 1.10 | 0.292 | 0.192 | 646
CC(C)(C)c1ccc(-c2cc(C3=C(c4cc(-c5ccc(C(C)(C)C)s5)sc4-c4ccc(N5CCOCC5)cc4)C(F)(F)C(F)(F)C3(F)F)c(-c3ccc(N4CCOCC4)cc3)s2)s1 [S112, 4,4′-((4,4″-(perfluorocyclopent-1-ene-1,2-diyl)bis(5′-(tert-butyl)-[2,2′-bithiophene]-5,4-diyl))bis(4,1-phenylene))dimorpholine] | 0.318 | 1.14 | 0.278 | 0.246 | 663
CC(C)(C)c1ccc(-c2cc(C3=C(c4cc(-c5ccc(C(C)(C)C)s5)sc4-c4ccc(O[Si](O[Si](C)(C)C)(O[Si](C)(C)C)O[Si](C)(C)C)cc4)C(F)(F)C(F)(F)C3(F)F)c(-c3ccc(O[Si](O[Si](C)(C)C)(O[Si](C)(C)C)O[Si](C)(C)C)cc3)s2)s1 [S118] | 0.34 | 1.52 | 0.223 | 0.124 | 648
CC(C)(C)c1ccc(-c2cc(C3=C(c4cc(-c5ccc(C(C)(C)C)s5)sc4-c4ccc(C(=O)O)s4)C(F)(F)C(F)(F)C3(F)F)c(-c3ccc(C(=O)O)s3)s2)s1 [S119] | 0.405 | – | 0.343 | 0.295 | –
CC(C)(C)c1ccc(-c2cc(C3=C(c4cc(-c5sc(C(C)(C)C)cc5C(=O)O)sc4-c4ccc(C(=O)O)s4)C(F)(F)C(F)(F)C3(F)F)c(-c3ccc(C(=O)O)s3)s2)s1 [S124] | 0.344 | 1.38 | 0.249 | 0.225 | 649
C[Si](C)(C)c1ccc(-c2cc(C3=C(c4cc(-c5ccc([Si](C)(C)C)s5)sc4-c4ccc([Si](C)(C)C)s4)C(F)(F)C(F)(F)C3(F)F)c(-c3ccc([Si](C)(C)C)s3)s2)s1 [S135, 3′,3″″-(perfluorocyclopent-1-ene-1,2-diyl)bis(5,5″-bis(trimethylsilyl)-2,2′:5′,2″-terthiophene)] | 0.387 | 1.22 | 0.318 | 0.224 | 648
Cc1ccc(-c2oc3ccccc3c2C2=C(c3c(-c4ccc(C)s4)oc4ccccc34)C(F)(F)C(F)(F)C2(F)F)s1 [S137, 3,3′-(perfluorocyclopent-1-ene-1,2-diyl)bis(2-(5-methylthiophen-2-yl)benzofuran)] | 0.15 | 4.55 | 0.033 | 0.016 | 497
